Measurements reported in patent US20240300900A1, “HYDROPHILIC AZADIBENZOCYCLOOCTYNE DERIVATIVES AND METAL-FREE CLICK REACTIONS WITH THESE HYDROPHILIC AZADIBENZOCYCLOOCTYNE DERIVATIVES” (Roche Diagnostics Operations, Inc., priority 2021, published 2024).

How the values were obtained:
[1] = Hydrophobicity indicated by reverse phase HPLC (YMC-Triart C18); format: physicochemical; conditions: YMC-Triart C18, 0-100% MeCN in H2O, 0.1% TFA in 25 min; later retention = more hydrophobic
Text: The other way round, an earlier retention corresponded to higher hydrophilie.

[2] = Solubility experiments: successive mixing with water, visual inspection; format: physicochemical; conditions: sonicated 10 s
Text: If solid compound was still visible, this was considered as not dissolved. If no solid compound was visible, this was considered as dissolved.

[3] = theoretical concentration 0.6 mM
[4] = theoretical concentration 6.0 mM
[5] = theoretical concentration 12.4 mM
[6] = theoretical concentration 16.5 mM
[7] = theoretical concentration 515 mM

Compound: O=C(O)CCCNC(=O)CCCC(=O)N1Cc2cc(OC[C@@H](O)CO)ccc2C#Cc2ccc(OC[C@@H](O)CO)cc21 [Compound 7]
- Retention Time [1]: 11.58 min

Compound: O=C(CCCC(=O)N1Cc2cc(OC[C@@H](O)CO)ccc2C#Cc2ccc(OC[C@@H](O)CO)cc21)NCCCC(=O)ON1C(=O)CCC1=O [Compound 8]
- dissolved in water (visual inspection) [2, 3]: yes
- dissolved in water (visual inspection) [2, 4]: yes
- dissolved in water (visual inspection) [2, 5]: yes
- dissolved in water (visual inspection) [2, 6]: no
- dissolved in water (visual inspection) [2, 7]: no

Compound: O=C(O)CCCCC(=O)N1Cc2ccccc2C#Cc2ccccc21 [Compound 31]
- Retention Time [1]: 15.18 min
- dissolved in water (visual inspection) [2, 3]: no
- dissolved in water (visual inspection) [2, 4]: no
- dissolved in water (visual inspection) [2, 5]: no
- dissolved in water (visual inspection) [2, 6]: no
- dissolved in water (visual inspection) [2, 7]: no

Compound: O=C(CCC(=O)N1Cc2ccccc2C#Cc2ccccc21)ON1C(=O)CCC1=O [Compound 32]
- dissolved in water (visual inspection) [2, 3]: no
- dissolved in water (visual inspection) [2, 4]: no
- dissolved in water (visual inspection) [2, 5]: no
- dissolved in water (visual inspection) [2, 6]: no
- dissolved in water (visual inspection) [2, 7]: no
